Inhibition data for 19 compounds are collected here from patent US6566380B2, “Potassium channel inhibitors” (ICAgen, Inc., priority 2000, dated 2003).

Like-named read-outs stand apart in the source and are kept apart here.

The target in this experiment is Kv1.5 potassium channel (Homo sapiens, UniProt P22460). The experiment can be described thus: Electrophysiological studies: whole-cell patch clamp of Kv1.5 currents in CHO cells. The format is cell-based. As to conditions: Chinese hamster ovary cells stably expressing Kv1.5, whole-cell voltage clamp. The protocol:
Electrophysiological recordings of potassium currents in Chinese hamster ovary cells stably expressing the gene construct for the Kv1.5 potassium channel subunit were performed using the whole cell configuration of the patch clamp technique (Hamill et al., Pflugers Archiv 391:85, 1981). Cell lines expressing Kv1.5 were prepared using standard techniques known to those skilled in the art. Cells were plated on glass coverslips at a density of 2×10^4 cells/coverslip and used within 24-48 hours. Solutions used for electrophysiological recordings were as follows. Extracellular bathing solutions typically contain (in mM) 132 NaCl, 5.4 KCl, 1.8 CaCl2, 0.8 MgCl2, 10 HEPES, 5 glucose at pH 7.3. […] The coverslips were placed in a small chamber (volume ˜200 μl) on the mechanical stage of an inverted microscope and perfused (approximately 2 ml/min) with extracellular recording solution. Drug was applied using a series of narrow-bore glass capillary tubes (inner diameter ˜100 μm) positioned approximately 200 μm from the cell.
As soon as the current recording were stable, a compound representative of the present invention was superfused over the cell until steady-state block was observed. Using this technique, the effects of the compound on peak and steady-state current were determined at progressively increasing compound concentrations.
The testing results of selected compounds from Table 2 using this assay and the techniques described above are reported in Table 3 as the percent inhibition of Kv1.5 potassium channel currents at a single concentration of 0.1 μM.
On the technique in general: The patch-clamp technique gives a direct electrical read-out from membranes.

Setting [1] is: read-out: Peak current inhibition at 0.1 μM (%).
Setting [2] is: read-out: Steady-state Current Inhibition at 0.1 μM (%).

Sequence of Kv1.5 potassium channel (P22460 whole entry): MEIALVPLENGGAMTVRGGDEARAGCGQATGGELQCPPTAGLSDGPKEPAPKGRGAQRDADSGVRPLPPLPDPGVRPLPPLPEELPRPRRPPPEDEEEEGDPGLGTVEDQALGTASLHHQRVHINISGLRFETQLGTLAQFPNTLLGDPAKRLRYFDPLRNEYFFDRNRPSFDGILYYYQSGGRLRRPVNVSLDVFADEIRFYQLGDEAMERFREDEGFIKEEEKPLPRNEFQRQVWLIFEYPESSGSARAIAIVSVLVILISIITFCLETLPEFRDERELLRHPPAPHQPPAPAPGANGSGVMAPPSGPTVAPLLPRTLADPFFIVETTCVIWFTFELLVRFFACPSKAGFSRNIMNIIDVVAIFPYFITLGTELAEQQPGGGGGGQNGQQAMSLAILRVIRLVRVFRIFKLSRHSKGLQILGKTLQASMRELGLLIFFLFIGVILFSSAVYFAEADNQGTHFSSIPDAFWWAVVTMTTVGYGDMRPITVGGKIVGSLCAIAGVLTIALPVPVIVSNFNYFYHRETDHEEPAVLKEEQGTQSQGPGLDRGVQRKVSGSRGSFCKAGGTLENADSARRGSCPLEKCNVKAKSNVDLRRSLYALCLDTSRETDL

For orientation: inhibition means the relative decrease from the control value, in per cent. On to `COc1ccc(S(=O)(=O)N[C@H]2CCCc3ccc(N(Cc4nccn4C)C(=O)C[C@@H](C)c4ccccc4)cc32)cc1` [Example 18], for which the inhibition at 0.1 µM turned out to be 72% under setting [1] and 84% under setting [2].
The corresponding values for `C[C@H](CC(=O)N(Cc1nccn1C)c1ccc2c(c1)[C@@H](NS(=O)(=O)c1ccccc1)CCC2)c1ccccc1` [Example 4] are 86% and 89%.
On to `Cc1ncc(CN(C(=O)C[C@@H](C)c2ccccc2)c2ccc3c(c2)[C@@H](NS(=O)(=O)c2cccc(F)c2)CCC3)n1C(C)C` [Example 20], for which the inhibition at 0.1 µM worked out at 52% under setting [1] and 64% under setting [2].
In the case of `Cc1cccc(CN(C(=O)C[C@H](C)c2ccccc2)c2ccc3c(c2)[C@H](NS(=O)(=O)c2ccccc2)CCC3)n1` [Example 25], the inhibition at 0.1 µM is 26% under setting [1] and 50% under setting [2].
With `C[C@H](CC(=O)N(Cc1nccn1C)c1ccc2c(c1)[C@@H](NS(=O)(=O)c1cccc(F)c1)CCC2)c1ccccc1` [Example 12], the inhibition at 0.1 µM is 68% under setting [1] and 85% under setting [2].
The corresponding values for `C[C@@H](CC(=O)N(Cc1nccn1C)c1ccc2c(c1)[C@H](NS(=O)(=O)c1ccccc1)CCC2)c1ccccc1` [Example 11] are 76% and 91%.
In the case of `C[C@H](CC(=O)N(Cc1nccn1C)c1ccc2c(c1)[C@@H](NS(=O)(=O)c1ccc(F)c(Cl)c1)CCC2)c1ccccc1` [Example 3], the inhibition at 0.1 µM under setting [1] is 84% and the inhibition at 0.1 µM under setting [2] is 93%.
The corresponding values for `Cc1ncc(CN(C(=O)C[C@@H](C)c2ccccc2)c2ccc3c(c2)[C@@H](NS(=O)(=O)c2ccccc2)CCC3)n1C(C)C` [Example 21] are 58% and 67%.
On to `C[C@@H](CC(=O)N(Cc1nccn1C)c1ccc2c(c1)[C@@H](NS(=O)(=O)c1cccc(Cl)c1)CCC2)c1ccccc1` [Example 6], for which the inhibition at 0.1 µM reads like this: under setting [1], 30%; under setting [2], 81%.
In the same order, the values of `C[C@@H](CC(=O)N(Cc1nccn1C)c1ccc2c(c1)[C@H](NS(=O)(=O)c1cccs1)CCC2)c1ccccc1` [Example 19] are 53% and 79%.
In the same order, the values of `C[C@@H](CC(=O)N(Cc1nccn1C)c1ccc2c(c1)[C@H](NS(=O)(=O)c1cccc(F)c1)CCC2)c1ccccc1` [Example 16] are 88% and 100%.
In the same order, the values of `CC(CC(=O)N(Cc1nccn1C)c1ccc2c(c1)C(NS(=O)(=O)c1ccc(F)cc1)CCC2)c1ccccc1` (centres unmarked) [Example 1] are 42% and 67%.
Consider `C[C@@H](CC(=O)N(Cc1nccn1C)c1ccc2c(c1)[C@H](NS(=O)(=O)c1cccc(Cl)c1)CCC2)c1ccccc1` [Example 17], for which the inhibition at 0.1 µM is, setting by setting: under setting [1], 84%; under setting [2], 97%.
The corresponding values for `C[C@@H](CC(=O)N(Cc1nccn1C)c1ccc2c(c1)[C@@H](NS(=O)(=O)c1ccc(F)cc1)CCC2)c1ccccc1` [Example 9] are 53% and 61%.
Regarding `Cc1cccc(CN(C(=O)C[C@@H](C)c2ccccc2)c2ccc3c(c2)[C@@H](NS(=O)(=O)c2ccc(F)c(Cl)c2)CCC3)n1` [Example 24], the inhibition at 0.1 µM was 48% under setting [1] and 65% under setting [2].
In the same order, the values of `C[C@@H](CC(=O)N(Cc1nccn1C)c1ccc2c(c1)[C@@H](NS(=O)(=O)c1ccccc1)CCC2)c1ccccc1` [Example 5] are 45% and 78%.
In the same order, the values of `C[C@@H](CC(=O)N(Cc1nccn1C)c1ccc2c(c1)[C@H](NS(=O)(=O)c1cccc(F)c1)CCC2)c1ccc(F)cc1` [Example 26] are 52% and 76%.
In the same order, the values of `C[C@H](CC(=O)N(Cc1nccn1C)c1ccc2c(c1)[C@@H](NS(=O)(=O)c1cccc(Cl)c1)CCC2)c1ccccc1` [Example 2] are 86% and 96%.
As for `Cc1cccc(CN(C(=O)C[C@@H](C)c2ccccc2)c2ccc3c(c2)[C@@H](NS(=O)(=O)c2ccccc2)CCC3)n1` [Example 23], the inhibition at 0.1 µM by setting is: under setting [1], 75%; under setting [2], 90%.
